In the SangsterLogP compilation:

Assay: method code SF-HPLC, from DOI: 10.1016/j.ejmech.2014.10.073, PMID: 25462263
Conditions: pH 7.4
For `CCOC(=O)Cc1ccc(OCC(=O)N(CC)CC)c(F)c1OC`, the logD was 2.29.
`CCN(CC)C(=O)COc1cc(F)c(CC(=O)OCCC(F)(F)F)cc1OC` gave a logD of 2.94.
Compound `CCCOC(=O)Cc1ccc(OCC(=O)N(CC)CC)c(OCC)c1` has a logD of 2.67.
For `CCCOC(=O)Cc1cc(OCC)c(OCC(=O)N(CC)CC)cc1F`, the logD was 2.72.
Work on `CCCOC(=O)Cc1ccc(OCC(=O)N(CC)CC)c(OC)c1` yielded a logD of 2.6.
With `CCN(CC)C(=O)COc1c(F)cc(CC(=O)OCC(F)(F)F)cc1OC` the logD was 2.51.
Compound `CCOc1cc(CC(=O)OCC(C)C)c(F)cc1OCC(=O)N(CC)CC` has a logD of 3.03.
`CCOC(=O)Cc1cc(OCC)c(OCC(=O)N(CC)CC)cc1F` gave a logD of 2.57.
`CCOC(=O)Cc1cc(F)c(OCC(=O)N(CC)CC)c(OCC)c1` gave a logD of 2.41.
Work on `CCOC(=O)Cc1cc(OC)c(OCC(=O)N(CC)CC)cc1F` yielded a logD of 2.07.
For `CCCOc1cc(CC(=O)OC(C)C)c(F)cc1OCC(=O)N(CC)CC`, the logD was 2.95.
With `CCOc1cc(CC(=O)OCC(F)(F)F)c(F)cc1OCC(=O)N(CC)CC` the logD was 2.9.
In the case of `CCOc1cc(CC(=O)OCCC(F)(F)F)c(F)cc1OCC(=O)N(CC)CC`, the logD is reported as 3.06.
Compound `CCOc1cc(CC(=O)OC(C)C)cc(F)c1OCC(=O)N(CC)CC` has a logD of 2.46.
With `CCCOC(=O)Cc1cc(F)c(OCC(=O)N(CC)CC)c(OCC)c1` the logD was 2.63.
Compound `CCN(CC)C(=O)COc1cc(F)c(CC(=O)OCC(F)(F)F)cc1OC` has a logD of 2.49.
In the case of `CCOc1cc(CC(=O)OCCC(F)(F)F)cc(F)c1OCC(=O)N(CC)CC`, the logD is reported as 3.1.
`CCN(CC)C(=O)COc1ccc(CC(=O)OCCC(F)(F)F)c(OC)c1F` showed a logD of 2.83.
In the case of `CCN(CC)C(=O)COc1c(F)cc(CC(=O)OCCC(F)(F)F)cc1OC`, the logD is reported as 2.81.
`CCOc1cc(CC(=O)OCC(F)(F)F)cc(F)c1OCC(=O)N(CC)CC` showed a logD of 2.78.
In the case of `CCN(CC)C(=O)COc1cc(F)c(CC(=O)OC(C)C)cc1OC`, the logD is reported as 2.19.
`CCOc1cc(CC(=O)OC(C)C)c(F)cc1OCC(=O)N(CC)CC` gave a logD of 2.59.
Compound `CCCOC(=O)Cc1cc(OC)c(OCC(=O)N(CC)CC)cc1F` has a logD of 2.36.
